Data on 5 compounds can be found in US4254106A, “Biologically active amides” (priority 1976, dated 1981).

Structures can show the parent of a compound that is named as a salt. Non-standard residues stand in square brackets, D forms with d. Residues, ends and D or L forms follow the SMILES beside them.

The test has as its system isolated mouse vas deferens. In kind it is cell-based. The settings on record: for Relative Potency (Morphine): RP=antilog[logD50(morphine)-logD50(test compound)]; for IC50: dose giving the response halfway between maximum response and minimum contraction, pulses at 0.1 Hz, mean of generally at least two cumulative dose response curves, read-out: Mean D50. Here is the method:
The compounds were examined for their ability to inhibit neurally evoked contractions of the isolated mouse vas deferens preparation (method of Hughes et al, Brain Research, 88 (1975) 296, using pulses at 0.1 Hz).
The heights of the five contractions that immediately preceded the addition of the first "dose" of test compound were measured and their mean calculated. The resultant mean contraction associated with a particular bath concentration of test compound was calculated from the heights of the 6th, 7th, 8th, 9th and 10th contractions after the addition of the appropriate "dose" of test compound, i.e. the five contractions that immediately preceded the subsequent "dose" or washout.
The mean control contraction height and the concentration related mean contraction heights were used to compute the constants in an equation based on the Langmuir Adsorption Isotherm which defined the dose response curve: [formula] where y=contraction (mm)
For each test compound the D50 was calculated, defined as the dose giving the resonse that is halfway between the maximum response and the minimum contraction of the tissue.
Generally at least two cumulative dose response curves were constructed and a mean D50 calculated.

Regarding `CSCC[C@H](NC(=O)[C@H](Cc1ccccc1)NC(=O)CNC(=O)[C@@H](C)NC(=O)[C@@H](N)Cc1ccc(O)cc1)C(=O)O` [5(a), H.Tyr.D-Ala.Gly.Phe.Met.OH HCl], the “Relative Potency (Morphine)” value stood at 229 and the IC50 was 2.03 nM.

For `COC(=O)[C@H](CCSC)NC(=O)[C@H](Cc1ccccc1)NC(=O)CNC(=O)[C@@H](C)NC(=O)[C@@H](N)Cc1ccc(O)cc1` [5(b), H.Tyr.D-Ala.Gly.Phe.Met.OMe], the “Relative Potency (Morphine)” value amounted to 94 and the IC50 was 4.95 nM.

For `CC(C)C[C@H](NC(=O)[C@H](Cc1ccccc1)NC(=O)CNC(=O)[C@@H](C)NC(=O)[C@@H](N)Cc1ccc(O)cc1)C(=O)O` [Example 4, H.Tyr.D-Ala.Gly.Phe.Leu.OH HCl], the “Relative Potency (Morphine)” value was 267 and the IC50 came out at 1.74 nM.

Take `CSCC[C@H](NC(=O)[C@H](Cc1ccccc1)NC(=O)CNC(=O)[C@@H](C)NC(=O)[C@@H](N)Cc1ccc(O)cc1)C(=O)N[C@H](C(=O)O)[C@@H](C)O` [Example 14, H.Tyr.D-Ala.Gly.Phe.Met.Thr.OH HCl] (H-Y[dA]GFMT-OH): the “Relative Potency (Morphine)” value was 229 and the IC50 stood at 2.03 nM.

As to `CN1CC[C@]23c4c5ccc(O)c4O[C@H]2[C@@H](O)C=C[C@H]3[C@H]1C5` [Morphine, reference compound], the “Reversal of the inhibition of contractions by naloxone” value is “Reversal of the inhibition of the contractions was effected”.
